What was measured:
Adrenergic β3 = Adrenergic β3 (Homo sapiens, UniProt P13945); assay: radioligand binding (Table S2); settings: read-out: % Inhibition @ 10 µM
Melanocortin MC4 = biological target: T1, Melanocortin MC4 (Homo sapiens, UniProt P32245); assay: radioligand binding (Table S2); settings: [125I] NDP-α-MSH, Human recombinant CHO cells
T1 construct: host or cells: CHO cells

Chemokine CXCR4 = Chemokine CXCR4 (Homo sapiens, UniProt P61073); assay: radioligand binding (Table S2); settings: [125I] SDF-1α, Human recombinant Chem-1 cells
Chain of Chemokine CXCR4 (P61073 whole entry): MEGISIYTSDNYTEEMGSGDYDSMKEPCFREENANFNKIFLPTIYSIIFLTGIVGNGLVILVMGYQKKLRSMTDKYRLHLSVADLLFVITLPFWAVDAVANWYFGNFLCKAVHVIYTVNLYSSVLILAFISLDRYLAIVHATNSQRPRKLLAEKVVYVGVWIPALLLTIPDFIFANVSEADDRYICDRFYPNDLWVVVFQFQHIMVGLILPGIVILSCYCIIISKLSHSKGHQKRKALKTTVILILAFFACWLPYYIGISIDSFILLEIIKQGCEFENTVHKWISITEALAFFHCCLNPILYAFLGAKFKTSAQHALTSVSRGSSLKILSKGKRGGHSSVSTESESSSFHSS

Bombesin BB2 = biological target: T2, Bombesin BB2 (Homo sapiens, UniProt P30550); assay: radioligand binding (Table S2); settings: [125I] [Tyr4]-bombesin, Human recombinant HEK-293 cells
T2 construct: host or cells: HEK-293 cells
T2 sequence (P30550 whole entry): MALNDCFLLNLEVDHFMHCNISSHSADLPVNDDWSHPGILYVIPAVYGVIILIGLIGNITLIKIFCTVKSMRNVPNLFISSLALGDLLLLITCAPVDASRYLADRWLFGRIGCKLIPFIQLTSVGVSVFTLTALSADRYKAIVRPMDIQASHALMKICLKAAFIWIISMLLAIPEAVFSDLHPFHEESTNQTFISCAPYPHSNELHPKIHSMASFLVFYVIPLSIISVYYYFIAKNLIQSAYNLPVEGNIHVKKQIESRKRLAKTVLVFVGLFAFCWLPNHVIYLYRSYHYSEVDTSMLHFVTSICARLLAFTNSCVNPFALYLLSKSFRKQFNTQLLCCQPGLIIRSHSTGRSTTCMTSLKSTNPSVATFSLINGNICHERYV

Vasopressin V2 = biological target: T3, Vasopressin V2 (Homo sapiens, UniProt P30518); assay: functional assay, cAMP HTRF, CHO cells (Table S2); assay type: cell-based; settings: read-out: % inhibition of reference agonist response @ 10 µM (antagonist effect), AVP (0.03 nM)
T3 construct: expressed in transfected cells; host or cells: CHO cells

Vasopressin V1a = biological target: T4, Vasopressin V1a (Homo sapiens, UniProt P37288); assay: radioligand binding (Table S2); settings: [3H] AVP, Human recombinant CHO cells
T4 construct: host or cells: CHO cells
T4 sequence (P37288 whole entry): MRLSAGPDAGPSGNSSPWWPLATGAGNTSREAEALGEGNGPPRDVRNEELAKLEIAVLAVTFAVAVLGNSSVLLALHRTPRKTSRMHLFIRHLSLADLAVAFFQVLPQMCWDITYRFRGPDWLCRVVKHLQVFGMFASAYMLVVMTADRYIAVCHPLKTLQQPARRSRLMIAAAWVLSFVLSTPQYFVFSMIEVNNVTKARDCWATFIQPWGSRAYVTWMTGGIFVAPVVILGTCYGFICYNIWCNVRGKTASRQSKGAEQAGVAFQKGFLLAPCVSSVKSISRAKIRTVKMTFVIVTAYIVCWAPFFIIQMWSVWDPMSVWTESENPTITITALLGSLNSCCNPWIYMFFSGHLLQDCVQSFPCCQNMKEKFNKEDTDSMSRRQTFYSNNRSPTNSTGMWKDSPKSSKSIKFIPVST

Serotonin 5-HT2A = biological target: T5, Serotonin 5-HT2A (Homo sapiens, UniProt P28223); assay: radioligand binding (Table S2); settings: [125I] (±)DOI, Human recombinant HEK-293 cells
T5 construct: host or cells: HEK-293 cells
T5 sequence (P28223 whole entry): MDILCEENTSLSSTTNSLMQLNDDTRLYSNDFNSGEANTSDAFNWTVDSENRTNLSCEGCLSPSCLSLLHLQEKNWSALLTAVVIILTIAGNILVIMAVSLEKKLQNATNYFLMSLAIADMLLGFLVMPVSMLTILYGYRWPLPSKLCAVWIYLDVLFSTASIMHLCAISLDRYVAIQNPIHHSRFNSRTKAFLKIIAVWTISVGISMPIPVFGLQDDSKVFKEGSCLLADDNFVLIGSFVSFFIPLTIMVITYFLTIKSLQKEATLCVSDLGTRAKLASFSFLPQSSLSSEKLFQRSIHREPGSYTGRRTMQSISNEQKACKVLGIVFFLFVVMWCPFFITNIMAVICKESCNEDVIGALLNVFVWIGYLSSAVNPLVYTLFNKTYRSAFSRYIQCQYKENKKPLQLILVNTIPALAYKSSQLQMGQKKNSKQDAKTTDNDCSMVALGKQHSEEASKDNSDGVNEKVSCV

Muscarinic M3 = Muscarinic M3 (Homo sapiens, UniProt P20309); assay: radioligand binding (Table S2); settings: read-out: % Inhibition @ 10 µM
Chain of Muscarinic M3 (P20309 whole entry): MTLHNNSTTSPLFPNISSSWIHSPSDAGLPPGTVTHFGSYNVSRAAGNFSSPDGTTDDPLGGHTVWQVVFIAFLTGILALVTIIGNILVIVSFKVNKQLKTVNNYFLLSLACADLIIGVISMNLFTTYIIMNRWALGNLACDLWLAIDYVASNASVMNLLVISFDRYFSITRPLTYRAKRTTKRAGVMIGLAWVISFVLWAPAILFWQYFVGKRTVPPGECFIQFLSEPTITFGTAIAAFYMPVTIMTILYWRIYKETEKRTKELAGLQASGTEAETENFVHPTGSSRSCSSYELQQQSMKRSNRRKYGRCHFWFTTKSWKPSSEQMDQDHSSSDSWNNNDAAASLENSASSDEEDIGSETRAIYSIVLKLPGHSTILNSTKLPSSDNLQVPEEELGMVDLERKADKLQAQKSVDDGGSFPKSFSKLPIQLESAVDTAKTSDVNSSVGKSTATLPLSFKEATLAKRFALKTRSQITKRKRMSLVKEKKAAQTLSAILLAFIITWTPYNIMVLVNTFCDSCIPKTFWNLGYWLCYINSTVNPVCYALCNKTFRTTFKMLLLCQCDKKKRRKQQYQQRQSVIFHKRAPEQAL

Galanin GAL2 = biological target: T6, Galanin GAL2 (Homo sapiens, UniProt O43603); assay: radioligand binding (Table S2); settings: [125I] Galanin, Human recombinant CHO cells
T6 construct: host or cells: CHO cells
T6 sequence (O43603 whole entry): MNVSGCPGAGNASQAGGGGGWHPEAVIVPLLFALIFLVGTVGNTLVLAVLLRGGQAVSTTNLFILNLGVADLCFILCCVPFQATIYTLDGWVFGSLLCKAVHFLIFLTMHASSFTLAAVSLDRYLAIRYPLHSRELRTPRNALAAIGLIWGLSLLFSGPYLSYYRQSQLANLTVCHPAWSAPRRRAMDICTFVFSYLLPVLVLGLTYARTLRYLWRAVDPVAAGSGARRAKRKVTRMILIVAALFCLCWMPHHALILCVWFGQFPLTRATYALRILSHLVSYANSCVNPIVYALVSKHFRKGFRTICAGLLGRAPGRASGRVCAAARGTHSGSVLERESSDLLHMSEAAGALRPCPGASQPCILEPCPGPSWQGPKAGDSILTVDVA

Orexin OX2 = biological target: T7, Orexin OX2 (Homo sapiens, UniProt O43614); assay: radioligand binding (Table S2); settings: [125I] Orexin A, Human recombinant HEK-293 cells
T7 construct: host or cells: HEK-293 cells

[1] = test system: Muscarinic, oxotremorine M; assay: radioligand binding (Table S2); settings: [3H] Oxotremorine M, Wistar rat cerebral cortex
Motilin = Motilin (Homo sapiens, UniProt O43193); assay: radioligand binding (Table S2); settings: [125I] Motilin, Human recombinant CHO cells
Serotonin 5-HT1B = biological target: T8, Serotonin 5-HT1B (Rattus norvegicus, UniProt P28564); assay: radioligand binding (Table S2); settings: [125I] CYP (+ 30 µM isoproterenol), Rat cerebral cortex
T8 construct: tissue Eurofins; host or cells: rat cerebral cortex
T8 sequence (P28564 whole entry): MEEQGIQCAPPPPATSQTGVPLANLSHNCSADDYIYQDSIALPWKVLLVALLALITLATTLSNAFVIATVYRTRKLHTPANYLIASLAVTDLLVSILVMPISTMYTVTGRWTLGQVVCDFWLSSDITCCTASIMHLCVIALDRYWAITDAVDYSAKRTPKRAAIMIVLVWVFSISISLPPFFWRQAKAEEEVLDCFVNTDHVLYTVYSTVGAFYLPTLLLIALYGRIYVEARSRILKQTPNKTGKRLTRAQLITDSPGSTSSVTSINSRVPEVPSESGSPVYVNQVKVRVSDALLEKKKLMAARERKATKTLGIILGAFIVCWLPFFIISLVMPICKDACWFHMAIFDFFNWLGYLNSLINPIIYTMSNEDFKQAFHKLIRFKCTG

Bradykinin B1 = biological target: T9, Bradykinin B1 (Homo sapiens, UniProt P46663); assay: radioligand binding (Table S2)
T9 construct: host or cells: CHO cells

Potassium channel hERG = Potassium channel hERG (Homo sapiens, UniProt Q12809); assay: in vitro
Chain of Potassium channel hERG (Q12809 whole entry): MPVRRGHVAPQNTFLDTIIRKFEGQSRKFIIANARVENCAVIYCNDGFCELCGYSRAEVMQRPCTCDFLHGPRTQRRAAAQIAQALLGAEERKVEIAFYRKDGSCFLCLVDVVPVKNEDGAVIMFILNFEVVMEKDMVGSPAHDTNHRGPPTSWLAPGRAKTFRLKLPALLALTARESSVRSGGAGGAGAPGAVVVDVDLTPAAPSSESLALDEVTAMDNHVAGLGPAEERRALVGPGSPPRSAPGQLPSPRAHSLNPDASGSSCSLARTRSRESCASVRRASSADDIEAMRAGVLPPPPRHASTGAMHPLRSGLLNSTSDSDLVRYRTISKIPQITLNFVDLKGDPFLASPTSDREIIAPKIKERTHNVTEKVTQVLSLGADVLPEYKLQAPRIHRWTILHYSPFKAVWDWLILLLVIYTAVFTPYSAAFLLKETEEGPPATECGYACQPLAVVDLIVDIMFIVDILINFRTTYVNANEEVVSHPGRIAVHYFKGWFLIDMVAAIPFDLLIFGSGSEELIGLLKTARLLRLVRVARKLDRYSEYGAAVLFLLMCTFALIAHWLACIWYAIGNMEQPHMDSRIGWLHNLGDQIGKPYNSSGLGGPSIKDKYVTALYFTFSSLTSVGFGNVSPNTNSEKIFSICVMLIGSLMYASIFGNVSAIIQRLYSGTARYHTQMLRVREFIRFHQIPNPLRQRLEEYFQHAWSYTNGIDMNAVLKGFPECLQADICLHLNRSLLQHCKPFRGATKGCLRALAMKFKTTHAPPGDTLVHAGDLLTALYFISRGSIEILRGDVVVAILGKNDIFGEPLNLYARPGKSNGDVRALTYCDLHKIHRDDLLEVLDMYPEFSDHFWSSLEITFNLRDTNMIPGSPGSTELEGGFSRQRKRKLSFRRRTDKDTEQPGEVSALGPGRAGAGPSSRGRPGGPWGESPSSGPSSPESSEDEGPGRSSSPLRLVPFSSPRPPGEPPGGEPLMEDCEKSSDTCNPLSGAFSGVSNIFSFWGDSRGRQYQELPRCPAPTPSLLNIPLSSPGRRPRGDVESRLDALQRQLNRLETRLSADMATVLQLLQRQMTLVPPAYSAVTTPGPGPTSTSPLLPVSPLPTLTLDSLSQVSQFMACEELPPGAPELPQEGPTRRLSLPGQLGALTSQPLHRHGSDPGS

[2] = biological target: T10, cynomolgus monkey B2 receptor (Macaca fascicularis, UniProt A0A7N9CWN6); assay: cell-based
T10 sequence (A0A7N9CWN6 1-391): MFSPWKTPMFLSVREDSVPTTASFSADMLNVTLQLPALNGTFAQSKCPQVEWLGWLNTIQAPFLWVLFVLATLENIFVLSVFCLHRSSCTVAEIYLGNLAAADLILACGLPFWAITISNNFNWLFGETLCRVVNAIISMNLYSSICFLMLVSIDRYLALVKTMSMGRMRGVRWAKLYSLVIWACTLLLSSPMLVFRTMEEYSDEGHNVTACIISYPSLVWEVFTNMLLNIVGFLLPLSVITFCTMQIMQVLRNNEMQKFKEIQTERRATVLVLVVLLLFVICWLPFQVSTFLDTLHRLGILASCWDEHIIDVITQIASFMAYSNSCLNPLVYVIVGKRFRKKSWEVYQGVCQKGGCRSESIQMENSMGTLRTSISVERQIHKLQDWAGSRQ

[3] = biological target: T11, Vasoactive intestinal peptide VPAC1 (VIP1) (Homo sapiens, UniProt P32241); assay: radioligand binding (Table S2); settings: [125I] VIP, Human recombinant CHO cells
T11 construct: host or cells: CHO cells
T11 sequence (P32241 31-457): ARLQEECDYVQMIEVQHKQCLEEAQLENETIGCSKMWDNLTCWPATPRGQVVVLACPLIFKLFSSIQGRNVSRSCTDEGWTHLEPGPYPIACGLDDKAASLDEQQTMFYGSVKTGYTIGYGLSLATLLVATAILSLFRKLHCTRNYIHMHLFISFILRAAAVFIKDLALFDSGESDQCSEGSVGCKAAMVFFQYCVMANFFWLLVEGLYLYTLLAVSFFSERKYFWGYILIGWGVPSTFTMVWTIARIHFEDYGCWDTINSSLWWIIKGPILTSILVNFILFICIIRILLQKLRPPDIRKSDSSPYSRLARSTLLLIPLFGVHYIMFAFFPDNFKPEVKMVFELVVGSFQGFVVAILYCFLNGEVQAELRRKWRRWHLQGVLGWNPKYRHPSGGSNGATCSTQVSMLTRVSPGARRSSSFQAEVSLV

[4] = biological target: Cholecystokinin CCK2 (CCKB) (Homo sapiens, UniProt P32239); assay: radioligand binding (Table S2); settings: [125I] CCK-8, Human recombinant Chem-1 cells
Neurokinin NK2 = biological target: T12, Neurokinin NK2 (Homo sapiens, UniProt P21452); assay: radioligand binding (Table S2); settings: [125I] NKA, Human recombinant CHO cells
T12 construct: host or cells: CHO cells
T12 sequence (P21452 1-398): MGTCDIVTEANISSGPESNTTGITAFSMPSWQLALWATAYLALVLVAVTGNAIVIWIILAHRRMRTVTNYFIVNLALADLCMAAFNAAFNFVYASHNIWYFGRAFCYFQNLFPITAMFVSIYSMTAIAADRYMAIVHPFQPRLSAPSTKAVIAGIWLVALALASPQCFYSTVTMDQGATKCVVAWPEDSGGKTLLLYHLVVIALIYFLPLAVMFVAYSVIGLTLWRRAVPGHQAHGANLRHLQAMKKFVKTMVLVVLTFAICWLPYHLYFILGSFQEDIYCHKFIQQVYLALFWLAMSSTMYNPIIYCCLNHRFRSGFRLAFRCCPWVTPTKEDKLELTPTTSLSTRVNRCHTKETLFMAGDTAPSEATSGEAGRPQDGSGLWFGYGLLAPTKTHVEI

PDGFRα kinase = biological target: T13, PDGFRα kinase (Homo sapiens, UniProt P16234); assay: enzyme assay (Table S2); assay type: biochemical; settings: ATP + Ulight-TK peptide (100 nM), LANCE
T13 construct: Eurofins (assay provider)

Chain of Adrenergic β3 (P13945 whole entry): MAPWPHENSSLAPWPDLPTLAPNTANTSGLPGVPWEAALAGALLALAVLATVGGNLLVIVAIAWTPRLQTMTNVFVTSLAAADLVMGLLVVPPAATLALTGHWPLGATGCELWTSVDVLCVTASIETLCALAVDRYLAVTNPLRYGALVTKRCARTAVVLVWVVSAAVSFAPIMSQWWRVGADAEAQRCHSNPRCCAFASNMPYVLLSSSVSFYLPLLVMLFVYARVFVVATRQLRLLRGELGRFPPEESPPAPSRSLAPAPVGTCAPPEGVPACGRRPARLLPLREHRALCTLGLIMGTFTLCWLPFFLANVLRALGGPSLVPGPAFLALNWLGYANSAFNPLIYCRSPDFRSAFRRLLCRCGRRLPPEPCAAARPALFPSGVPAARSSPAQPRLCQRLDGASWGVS

`Cc1cc(-c2ncnn2C)c2cccc(OCc3c(Cl)cc(F)cc3[C@H](C)NC(=O)COC(F)F)c2n1` [Compound 3, (S)-N-(1-(3-chloro-5-fluoro-2-((2-methyl-4-(1-methyl-1H-1,2,4-triazol-5-yl)quinolin-8-yloxy)methyl)phenyl)ethyl)-2-(difluoromethoxy)acetamide] showed an inhibition at 10 µM (Adrenergic β3) of 8.1%, an inhibition at 10 µM (Melanocortin MC4) of 7.1% and an inhibition at 10 µM (Chemokine CXCR4) of 10%. The inhibition at 10 µM (Bombesin BB2) was -1.4%, the inhibition at 10 µM (Vasopressin V2) was -15.1% and the “% Inhibition @ 10 µM” value (Vasopressin V1a) was 84%. The inhibition at 10 µM (Vasopressin V1a) was 84.1%, the inhibition at 10 µM (Serotonin 5-HT2A) was -3.8% and the inhibition at 10 µM (Muscarinic M3) was 4.2%. The inhibition at 10 µM (Galanin GAL2) was 6.2%, the inhibition at 10 µM (Orexin OX2) was 25.9% and the “% Inhibition @ 10 µM” value [1] was 18%. It also gave an inhibition at 10 µM (Motilin) of 5%, an inhibition at 10 µM (Serotonin 5-HT1B) of -2.5% and an inhibition at 10 µM (Bradykinin B1) of 0.5%. For the same molecule, the inhibition at 60 min, 10 µM (Potassium channel hERG) was 17.8%, the IC50 [2] was 6.25 nM and the Kb [2] was 1.36 nM. The inhibition at 10 µM [3] was 0.8%, the inhibition at 10 µM [4] was 1% and the “% Inhibition @ 10 µM” value (Neurokinin NK2) was 21%. The inhibition at 10 µM (Neurokinin NK2) was 21.2% and the inhibition at 10 µM (PDGFRα kinase) was -2.6%.
